In ChEMBL document CHEMBL1134928, “Synthesis and evaluation of potent pyrrolidine H(3) antagonists” (Bioorg Med Chem Lett, 2002):

These compounds were tested against T1, Histamine H3 receptor (Rattus norvegicus, UniProt Q9QYN8) (assay: Binding affinity towards rat Histamine H3 receptor (For compound 11)).
T1 sequence (Q9QYN8 whole entry): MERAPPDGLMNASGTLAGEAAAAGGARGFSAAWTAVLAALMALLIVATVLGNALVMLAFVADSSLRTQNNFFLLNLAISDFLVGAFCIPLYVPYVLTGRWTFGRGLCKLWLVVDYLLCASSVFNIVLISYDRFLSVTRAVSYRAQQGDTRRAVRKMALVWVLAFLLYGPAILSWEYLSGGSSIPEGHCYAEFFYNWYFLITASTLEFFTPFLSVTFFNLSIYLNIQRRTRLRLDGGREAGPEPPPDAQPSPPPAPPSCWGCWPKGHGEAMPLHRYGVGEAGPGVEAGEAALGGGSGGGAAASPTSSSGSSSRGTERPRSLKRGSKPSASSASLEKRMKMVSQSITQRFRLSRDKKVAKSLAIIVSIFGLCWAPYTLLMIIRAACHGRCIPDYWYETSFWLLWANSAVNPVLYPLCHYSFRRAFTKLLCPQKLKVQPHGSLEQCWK

| Ki [nM] | SMILES |
| --- | --- |
| 676 | CC(=O)c1ccc(OCCCN2CC[C@H](N)C2)cc1 |

These compounds were tested against T2, Histamine H2 receptor (Homo sapiens, UniProt P25021) (assay: Binding affinity to the human Histamine H2 receptor).
T2 sequence (P25021 whole entry): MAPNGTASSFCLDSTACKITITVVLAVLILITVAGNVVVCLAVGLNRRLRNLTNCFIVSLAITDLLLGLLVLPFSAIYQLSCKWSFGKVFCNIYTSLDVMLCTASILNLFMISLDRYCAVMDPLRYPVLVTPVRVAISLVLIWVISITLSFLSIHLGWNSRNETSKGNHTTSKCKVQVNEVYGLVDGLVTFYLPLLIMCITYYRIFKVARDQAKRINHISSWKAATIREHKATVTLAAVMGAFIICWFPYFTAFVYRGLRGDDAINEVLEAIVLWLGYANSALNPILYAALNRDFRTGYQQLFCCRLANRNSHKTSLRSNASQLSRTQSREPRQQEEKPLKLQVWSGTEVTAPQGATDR

| Ki [nM] | SMILES |
| --- | --- |
| 6200 | CC(=O)c1ccc(OCCCN2CC[C@H](NC(=O)c3csc(-c4cccnc4)n3)C2)cc1 |
| 1200 | O=C(c1ccc(OCCCN2CC[C@H](NS(=O)(=O)c3ccccc3)C2)cc1)C1CC1 |
| 900 | N#Cc1cccc(S(=O)(=O)N[C@H]2CCN(CCCOc3ccc(C(=O)C4CC4)cc3)C2)c1 |
| 3500 | CC(=O)c1ccc(OCCCN2CC[C@H](NC(=O)c3cccnc3)C2)cc1 |
| 1000 | O=C(c1ccc(OCCCN2CC[C@H](NS(=O)(=O)c3ccccc3Cl)C2)cc1)C1CC1 |
| 100000 | CC(=O)c1ccc(OCCCN2CC[C@H](NC(=O)[C@@H](CO)NC(=O)OC(C)(C)C)C2)cc1 |
| 2300 | CC(=O)c1ccc(OCCCN2CC[C@H](NS(=O)(=O)c3ccc(C#N)cc3)C2)cc1 |
| 330 | CCc1ccc(S(=O)(=O)N[C@H]2CCN(CCCOc3ccc(C(=O)C4CC4)cc3)C2)cc1 |
| 2200 | Cc1ccccc1S(=O)(=O)N[C@H]1CCN(CCCOc2ccc(C(=O)C3CC3)cc2)C1 |
| 1800 | Cc1cccc(S(=O)(=O)N[C@H]2CCN(CCCOc3ccc(C(=O)C4CC4)cc3)C2)c1 |
| 40000 | CC(=O)c1ccc(OCCCN2CC[C@H](NC(=O)[C@@H](C)NC(=O)OC(C)(C)C)C2)cc1 |
| 290 | O=C(c1ccc(OCCCN2CC[C@H](NS(=O)(=O)c3ccc(Cl)cc3)C2)cc1)C1CC1 |
| 1550 | O=C(c1ccc(OCCCN2CC[C@H](NS(=O)(=O)c3ccccc3F)C2)cc1)C1CC1 |
| 500 | O=C(c1ccc(OCCCN2CC[C@H](NS(=O)(=O)c3ccc(F)cc3)C2)cc1)C1CC1 |
| 1600 | O=C(c1ccc(OCCCN2CC[C@H](NS(=O)(=O)c3cccc(F)c3)C2)cc1)C1CC1 |
| 22000 | CC(=O)c1ccc(OCCCN2CC[C@H](NC(=O)[C@@H](N)CO)C2)cc1 |
| 730 | CC(C)(C)c1ccc(S(=O)(=O)N[C@H]2CCN(CCCOc3ccc(C(=O)C4CC4)cc3)C2)cc1 |
| 1000 | COc1ccc(S(=O)(=O)N[C@H]2CCN(CCCOc3ccc(C(=O)C4CC4)cc3)C2)cc1 |
| 380 | Cc1ccc(S(=O)(=O)N[C@H]2CCN(CCCOc3ccc(C(=O)C4CC4)cc3)C2)cc1 |
| 1600 | N#Cc1ccc(S(=O)(=O)N[C@H]2CCN(CCCOc3ccc(C(=O)C4CC4)cc3)C2)cc1 |
| 46000 | CC(=O)c1ccc(OCCCN2CC[C@H](NC(=O)[C@H](CO)NC(=O)OC(C)(C)C)C2)cc1 |
| 50000 | CC(=O)c1ccc(OCCCN2CC[C@H](N)C2)cc1 |
| 24000 | CC(=O)c1ccc(OCCCN2CC[C@H](NC(=O)[C@H](C)NC(=O)OC(C)(C)C)C2)cc1 |
| 700 | O=C(c1ccc(OCCCN2CC[C@H](NS(=O)(=O)c3cccc(Cl)c3)C2)cc1)C1CC1 |
| 290 | O=C(c1ccc(OCCCN2CC[C@H](NS(=O)(=O)c3ccc(Br)cc3)C2)cc1)C1CC1 |
| 7100 | Cn1cnc(S(=O)(=O)N[C@H]2CCN(CCCOc3ccc(C(=O)C4CC4)cc3)C2)c1 |
| 5000 | CC(=O)c1ccc(OCCCN2CC[C@H](NC(=O)c3cnccn3)C2)cc1 |
| 4000 | O=C(N[C@H]1CCN(CCCOc2ccc(C(=O)C3CC3)cc2)C1)c1csc(-c2cccnc2)n1 |
| 710 | N#Cc1ccccc1S(=O)(=O)N[C@H]1CCN(CCCOc2ccc(C(=O)C3CC3)cc2)C1 |
| 6100 | CC(=O)c1ccc(OCCCN2CC[C@H](NC(=O)c3ccc(C#N)cc3)C2)cc1 |

Each compound was assayed against T1, Histamine H3 receptor (assay: Binding affinity towards rats Histamine type 3 (H3) receptor).

| Ki [nM] | SMILES |
| --- | --- |
| 2 | CCCCCC(=O)c1ccc(OCCCN2CCN(C(=O)OCC)CC2)cc1 |

These compounds were tested against T1, Histamine H3 receptor (assay: Binding affinity against rat histamine H3 receptor).

| Ki [nM] | SMILES |
| --- | --- |
| 55 | CC(=O)c1ccc(OCCCN2CC[C@H](NC(=O)c3csc(-c4cccnc4)n3)C2)cc1 |
| 3 | O=C(c1ccc(OCCCN2CC[C@H](NS(=O)(=O)c3ccccc3)C2)cc1)C1CC1 |
| 2.8 | N#Cc1cccc(S(=O)(=O)N[C@H]2CCN(CCCOc3ccc(C(=O)C4CC4)cc3)C2)c1 |
| 120 | CCS(=O)(=O)N1C[C@@H]2C[C@H]1CN2CCCOc1ccc(C(=O)C2CC2)cc1 |
| 310 | CC(=O)c1ccc(OCCCN2CC[C@H](NC(=O)[C@@H](CO)NC(=O)OC(C)(C)C)C2)cc1 |
| 19 | O=C(c1ccc(OCCCN2C[C@@H]3C[C@H]2CN3S(=O)(=O)c2ccccc2)cc1)C1CC1 |
| 6 | CC(=O)c1ccc(OCCCN2CC[C@H](NS(=O)(=O)c3ccc(C#N)cc3)C2)cc1 |
| 208 | O=C(c1ccc(OCCCN2C[C@@H]3C[C@H]2CN3C(=O)c2ccco2)cc1)C1CC1 |
| 4.6 | CCc1ccc(S(=O)(=O)N[C@H]2CCN(CCCOc3ccc(C(=O)C4CC4)cc3)C2)cc1 |
| 11 | Cc1ccccc1S(=O)(=O)N[C@H]1CCN(CCCOc2ccc(C(=O)C3CC3)cc2)C1 |
| 2.7 | Cc1cccc(S(=O)(=O)N[C@H]2CCN(CCCOc3ccc(C(=O)C4CC4)cc3)C2)c1 |
| 307 | CC(=O)c1ccc(OCCCN2CC[C@H](NC(=O)[C@@H](C)NC(=O)OC(C)(C)C)C2)cc1 |
| 413 | C[C@@H](NC(=O)N1C[C@@H]2C[C@H]1CN2CCCOc1ccc(C(=O)C2CC2)cc1)C(=O)O |
| 3.8 | O=C(c1ccc(OCCCN2CC[C@H](NS(=O)(=O)c3ccc(Cl)cc3)C2)cc1)C1CC1 |
| 2.7 | O=C(c1ccc(OCCCN2CC[C@H](NS(=O)(=O)c3ccccc3F)C2)cc1)C1CC1 |
| 3.5 | O=C(c1ccc(OCCCN2CC[C@H](NS(=O)(=O)c3ccc(F)cc3)C2)cc1)C1CC1 |
| 1.6 | O=C(c1ccc(OCCCN2CC[C@H](NS(=O)(=O)c3cccc(F)c3)C2)cc1)C1CC1 |
| 151 | CC(=O)c1ccc(OCCCN2CC[C@H](NC(=O)[C@@H](N)CO)C2)cc1 |
| 5.2 | CC(C)(C)c1ccc(S(=O)(=O)N[C@H]2CCN(CCCOc3ccc(C(=O)C4CC4)cc3)C2)cc1 |

| Ki [nM] | SMILES |
| --- | --- |
| 191 | O=C(c1ccc(OCCCN2C[C@@H]3C[C@H]2CN3C(=O)c2ccccn2)cc1)C1CC1 |
| 232 | C[C@H](NC(=O)N1C[C@@H]2C[C@H]1CN2CCCOc1ccc(C(=O)C2CC2)cc1)C(=O)O |
| 2.9 | COc1ccc(S(=O)(=O)N[C@H]2CCN(CCCOc3ccc(C(=O)C4CC4)cc3)C2)cc1 |
| 4.2 | Cc1ccc(S(=O)(=O)N[C@H]2CCN(CCCOc3ccc(C(=O)C4CC4)cc3)C2)cc1 |
| 4 | N#Cc1ccc(S(=O)(=O)N[C@H]2CCN(CCCOc3ccc(C(=O)C4CC4)cc3)C2)cc1 |
| 17 | O=C(O)CCNC(=O)N1C[C@@H]2C[C@H]1CN2CCCOc1ccc(C(=O)C2CC2)cc1 |
| 71 | CC(C)(C)OC(=O)NCCC(=O)N1C[C@@H]2C[C@H]1CN2CCCOc1ccc(C(=O)C2CC2)cc1 |
| 587 | CC(=O)c1ccc(OCCCN2CC[C@H](NC(=O)[C@H](CO)NC(=O)OC(C)(C)C)C2)cc1 |
| 344 | O=C(c1ccc(OCCCN2C[C@@H]3C[C@H]2CN3C(=O)c2ccccc2)cc1)C1CC1 |
| 901 | CC(=O)c1ccc(OCCCN2CC[C@H](NC(=O)[C@H](C)NC(=O)OC(C)(C)C)C2)cc1 |
| 258 | O=C(c1ccc(OCCCN2C[C@@H]3C[C@H]2CN3C(=O)c2ccc(F)cc2)cc1)C1CC1 |
| 3 | O=C(c1ccc(OCCCN2CC[C@H](NS(=O)(=O)c3cccc(Cl)c3)C2)cc1)C1CC1 |
| 5 | O=C(c1ccc(OCCCN2CC[C@H](NS(=O)(=O)c3ccc(Br)cc3)C2)cc1)C1CC1 |
| 10 | Cn1cnc(S(=O)(=O)N[C@H]2CCN(CCCOc3ccc(C(=O)C4CC4)cc3)C2)c1 |
| 202 | CC(=O)c1ccc(OCCCN2CC[C@H](NC(=O)c3cnccn3)C2)cc1 |
| 50 | O=C(N[C@H]1CCN(CCCOc2ccc(C(=O)C3CC3)cc2)C1)c1csc(-c2cccnc2)n1 |
| 134 | O=C(c1ccc(OCCCN2C[C@@H]3C[C@H]2CN3C(=O)C2CCCCC2)cc1)C1CC1 |
| 11 | N#Cc1ccccc1S(=O)(=O)N[C@H]1CCN(CCCOc2ccc(C(=O)C3CC3)cc2)C1 |
| 40 | CC(=O)c1ccc(OCCCN2CC[C@H](NC(=O)c3ccc(C#N)cc3)C2)cc1 |

The compounds below were run against T3, Histamine H1 receptor (Homo sapiens, UniProt P35367) (assay: Binding affinity to the human Histamine H1 receptor).
T3 sequence (P35367 whole entry): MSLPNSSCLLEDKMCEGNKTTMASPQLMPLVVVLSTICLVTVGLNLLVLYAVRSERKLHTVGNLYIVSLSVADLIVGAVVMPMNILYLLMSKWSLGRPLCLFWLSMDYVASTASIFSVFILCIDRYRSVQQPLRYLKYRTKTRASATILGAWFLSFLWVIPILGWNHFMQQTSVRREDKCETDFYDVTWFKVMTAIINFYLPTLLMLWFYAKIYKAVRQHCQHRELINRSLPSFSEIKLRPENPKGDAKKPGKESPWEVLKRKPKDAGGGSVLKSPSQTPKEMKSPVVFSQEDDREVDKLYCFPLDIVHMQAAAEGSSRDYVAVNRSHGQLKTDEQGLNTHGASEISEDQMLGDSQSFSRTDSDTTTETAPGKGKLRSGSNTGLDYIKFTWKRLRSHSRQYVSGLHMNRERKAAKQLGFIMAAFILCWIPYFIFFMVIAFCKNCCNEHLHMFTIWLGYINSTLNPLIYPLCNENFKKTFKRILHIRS

| Ki [nM] | SMILES |
| --- | --- |
| 11000 | CC(=O)c1ccc(OCCCN2CC[C@H](NC(=O)c3csc(-c4cccnc4)n3)C2)cc1 |
| 9100 | O=C(c1ccc(OCCCN2CC[C@H](NS(=O)(=O)c3ccccc3)C2)cc1)C1CC1 |
| 8900 | N#Cc1cccc(S(=O)(=O)N[C@H]2CCN(CCCOc3ccc(C(=O)C4CC4)cc3)C2)c1 |
| 7400 | CC(=O)c1ccc(OCCCN2CC[C@H](NC(=O)c3cccnc3)C2)cc1 |
| 4500 | O=C(c1ccc(OCCCN2CC[C@H](NS(=O)(=O)c3ccccc3Cl)C2)cc1)C1CC1 |
| 80000 | CC(=O)c1ccc(OCCCN2CC[C@H](NC(=O)[C@@H](CO)NC(=O)OC(C)(C)C)C2)cc1 |
| 14000 | CC(=O)c1ccc(OCCCN2CC[C@H](NS(=O)(=O)c3ccc(C#N)cc3)C2)cc1 |
| 2300 | CCc1ccc(S(=O)(=O)N[C@H]2CCN(CCCOc3ccc(C(=O)C4CC4)cc3)C2)cc1 |
| 16000 | Cc1ccccc1S(=O)(=O)N[C@H]1CCN(CCCOc2ccc(C(=O)C3CC3)cc2)C1 |
| 6600 | Cc1cccc(S(=O)(=O)N[C@H]2CCN(CCCOc3ccc(C(=O)C4CC4)cc3)C2)c1 |
| 56000 | CC(=O)c1ccc(OCCCN2CC[C@H](NC(=O)[C@@H](C)NC(=O)OC(C)(C)C)C2)cc1 |
| 2500 | O=C(c1ccc(OCCCN2CC[C@H](NS(=O)(=O)c3ccc(Cl)cc3)C2)cc1)C1CC1 |
| 9400 | O=C(c1ccc(OCCCN2CC[C@H](NS(=O)(=O)c3ccccc3F)C2)cc1)C1CC1 |
| 9200 | O=C(c1ccc(OCCCN2CC[C@H](NS(=O)(=O)c3ccc(F)cc3)C2)cc1)C1CC1 |
| 5900 | O=C(c1ccc(OCCCN2CC[C@H](NS(=O)(=O)c3cccc(F)c3)C2)cc1)C1CC1 |
| 43000 | CC(=O)c1ccc(OCCCN2CC[C@H](NC(=O)[C@@H](N)CO)C2)cc1 |
| 2300 | CC(C)(C)c1ccc(S(=O)(=O)N[C@H]2CCN(CCCOc3ccc(C(=O)C4CC4)cc3)C2)cc1 |
| 4400 | COc1ccc(S(=O)(=O)N[C@H]2CCN(CCCOc3ccc(C(=O)C4CC4)cc3)C2)cc1 |
| 5500 | Cc1ccc(S(=O)(=O)N[C@H]2CCN(CCCOc3ccc(C(=O)C4CC4)cc3)C2)cc1 |
| 20000 | N#Cc1ccc(S(=O)(=O)N[C@H]2CCN(CCCOc3ccc(C(=O)C4CC4)cc3)C2)cc1 |
| 75000 | CC(=O)c1ccc(OCCCN2CC[C@H](NC(=O)[C@H](CO)NC(=O)OC(C)(C)C)C2)cc1 |
| 90000 | CC(=O)c1ccc(OCCCN2CC[C@H](N)C2)cc1 |
| 60000 | CC(=O)c1ccc(OCCCN2CC[C@H](NC(=O)[C@H](C)NC(=O)OC(C)(C)C)C2)cc1 |
| 3600 | O=C(c1ccc(OCCCN2CC[C@H](NS(=O)(=O)c3cccc(Cl)c3)C2)cc1)C1CC1 |
| 1500 | O=C(c1ccc(OCCCN2CC[C@H](NS(=O)(=O)c3ccc(Br)cc3)C2)cc1)C1CC1 |
| 91000 | Cn1cnc(S(=O)(=O)N[C@H]2CCN(CCCOc3ccc(C(=O)C4CC4)cc3)C2)c1 |
| 10000 | CC(=O)c1ccc(OCCCN2CC[C@H](NC(=O)c3cnccn3)C2)cc1 |
| 37000 | O=C(N[C@H]1CCN(CCCOc2ccc(C(=O)C3CC3)cc2)C1)c1csc(-c2cccnc2)n1 |
| 6200 | N#Cc1ccccc1S(=O)(=O)N[C@H]1CCN(CCCOc2ccc(C(=O)C3CC3)cc2)C1 |
| 13000 | CC(=O)c1ccc(OCCCN2CC[C@H](NC(=O)c3ccc(C#N)cc3)C2)cc1 |

These compounds were tested against T3, Histamine H1 receptor (assay: Binding affinity towards human Histamine H1 receptor (For compound 11)).

| Ki [nM] | SMILES |
| --- | --- |
| 100000 | CC(=O)c1ccc(OCCCN2CC[C@H](N)C2)cc1 |

Each compound was assayed against T2, Histamine H2 receptor (assay: Binding affinity towards human Histamine H2 receptor (For compound 11)).

| Ki [nM] | SMILES |
| --- | --- |
| 31000 | CC(=O)c1ccc(OCCCN2CC[C@H](N)C2)cc1 |
